Experimental findings from patent publication US8455448B2, “Myostatin isoform” (Myostin Therapeutics Pty Ltd, priority 2004, dated 2013) are described below.

Assay [1] relates to rats bearing the AH130 tumour. The experiment in a line: Muscle mass during cancer-induced cachexia, rats with AH130 tumour. As to conditions: 1 μg/g bodymass s.c. twice daily for 6 d, six hind limb muscles, FIG. 18. It is filed as in vivo, rat. As to the method: In this study, 21 male rats (three months of age) were allocated at random into three groups of seven. Group one was injected i.p. with sterile saline (non-cancer controls), groups two and three were inoculated i.p. with 100 μl of the AH130 tumour (Baracos et al 1995). Groups one and two were injected twice daily s.c. for six days with sterile saline, while group three was injected twice daily s.c. for six days with 1 μg/g bodymass with roMSV47. Rats were killed at day six and, at death, skeletal muscles (biceps femoris, gastrocnemius, tibialis anterior, quadriceps femoris, plantaris and soleus) were excised from the right hind limb of each rat and the wet mass expressed as a percent of the initial body mass on day 0.
The ascites hepatoma 130 (AH130) was obtained as a gift from Dr Vicki Baracos (University of Alberta, Edmonton, Alberta, Canada) and stored in cryovials in liquid nitrogen in a solution of 50% DMSO and 10% BSA. An aliquot was retrieved and thawed and 1 ml was injected i.p. into each of three donor rats and allowed to grow for seven days. The rats were killed by CO2 asphyxiation followed by cervical dislocation. […] The volume of ascites in the peritoneal cavity was removed with a syringe and the volume recorded. Six muscles in the right hind limb (biceps femoris, gastrocnemius, soleus, plantaris, tibialis anterior and quadriceps femoris) were excised and their mass recorded. […]

Assay [2] has as its system primary ovine myoblasts. Description: Proliferation assay of primary ovine myoblasts (methylene blue). It is filed as cell-based. As to conditions: roMSV65 0 to 10 μg/ml, 72 h, FIG. 3B. As to the method: Myoblasts were seeded in 96-well tissue culture plates (Nunc, Roskilde, Denmark) at a cell density of 1000 cells per well in 200 μl of Dulbecco's modified Eagle's medium (DMEM, Invitrogen, California) supplemented with foetal bovine serum (FBS, 10% v/v, Invitrogen), penicillin (1×10^5 IU/l, Sigma, St Louis, Mo., USA) and streptomycin (100 mg/l, Sigma) buffered with NaHCO3 containing phenol red (7.22 nmol/l) as a pH indicator, and incubated overnight at 37° C. with 5% CO2. Medium was replaced with DMEM 10% FBS test medium containing 0, 0.001, 0.003, 0.01, 0.03, 0.1, 0.3, 1, 3 or 10 μg/ml oMSV65 in a semi-random arrangement of eight replicates (n=8) for each test medium. Plates were incubated at 37° C. with 5% CO2 for 72 hours, and then the medium was removed. The wells were washed with 200 μl of phosphate buffered saline (PBS, Oxoid, UK) and fixed with 100 μl of 10% formaldehyde, 0.9% NaCl solution for at least one hour. The fixative was then removed and 100 μl of 1% methylene blue stain in 0.01 M borate buffer (pH 8.5) was added to each well and incubated for 30 min at room temperature. Excess stain was removed by four sequential washes in borate buffer. Methylene blue was eluted from the cells by the addition of 100 μl 1:1 (v/v) ethanol/0.1 HCl. The plates were gently shaken and the absorbance was measured at 655 nm using a microplate photometer (FIGS. 3a and 3b).

“roMSV47: 47 amino acid C-terminal mature ovine MSV fragment (SEQ ID NO: 50), recombinant from E. coli (IIFLEVYIQFCSILGEAVFKRQSKSIHFCQNFKIIACLCNTAAFRMK; Ovis aries)”: the “reduction of generalised wasting of skeletal muscle induced by cancer” value in assay [1] is recorded as 20%.

B1: roMSV65: 65 amino acid C-terminal peptide of ovine MSV (SEQ ID NO: 49) expressed as recombinant protein in E. coli (protein)
chain: VHFYTPPYGQWIFHKERKIIFLEVYIQFCSILGEAVFKRQSKSIHFCQNFKIIACLCNTAAFRMK
modifications: Ovis aries
Turning to B1, in assay [2], the “myoblast cell growth (proliferation)” value is listed as “stimulate myoblast cell growth in a dose dependent manner”.
